System: Male BALB/c HSD mice
Test: Survival of mice rendered hepatotoxic by LPS/GAL treatment (hepatic failure / septic shock model)
Assay type: in vivo
Conditions: for survival time compared to mice receiving LPS/GAL only: mice made septic by LPS/GAL treatment, 4 mg/kg intraperitoneal x5, result in words; for SURVIVAL 15 Hours (number of surviving mice) / SURVIVAL 15 Hours (percent of mice) / SURVIVAL 20 Hours (number of surviving mice) / SURVIVAL 20 Hours (percent of mice) / SURVIVAL 40 Hours (number of surviving mice) / SURVIVAL 40 Hours (percent of mice) / SURVIVAL 65 Hours (number of surviving mice) / SURVIVAL 65 Hours (percent of mice): n=15 mice, 4 mg/kg intraperitoneal at 0 h, 2 h, 4 h, 6 h and 7.5 h, LPS/GAL at 6.5 h; for SURVIVAL 15 Hours (number of surviving mice) / SURVIVAL 15 Hours (percent of mice): 15 h after the last injection; for SURVIVAL 20 Hours (number of surviving mice) / SURVIVAL 20 Hours (percent of mice): 20 h after the last injection; for SURVIVAL 40 Hours (number of surviving mice) / SURVIVAL 40 Hours (percent of mice): 40 h after the last injection; for SURVIVAL 65 Hours (number of surviving mice) / SURVIVAL 65 Hours (percent of mice): 65 h after the last injection
Method: Hepatic failure was induced in mice by intraperitoneal injections of a mixture of lipopolysaccharide (LPS) ([…]) and D-galactosamine (GAL) (700 mg/kg) to form LPS/GAL. LPS is a bacterial endotoxin that is a major stimulus for production of many cytokines, particularly tumor necrosis factor (TNF), thought to be involved in liver injury. GAL is an amino sugar that sensitizes hepatocytes by depleting the base uridine and thus preventing hepatic transcription, and sensitizes animals to normally innocuous amounts of endotoxin or TNF. The LPS/GAL treatment induces fulminate hepatic and multiorgan failure, and serves as a model for septic shock. The major effects of LPS/GAL are elicited by the inflammatory cytokine TNF-α. Hepatocytes sensitized to TNF-α then undergo apoptosis or programmed cell death in response to inflammatory processes.
Mice were treated with deltorphin and were subsequently rendered hepatotoxic by LPS/GAL treatment. An emulsion of deltorphin I SEQ ID NO:1 (Tyr-D-Ala-Phe-Asp-Val-Val-Gly-NH2) was prepared at a concentration of 80 μg/200 μl in sterile phosphate buffered saline (PBS). An emulsion of DADLE (Tyr-D-Ala-Gly-Phe-D-Leu-enkephalin) was also prepared at a concentration of 80 μg/200 μl in sterile PBS. Male BALB/c HSD mice were treated by intraperitoneal injections according to the following protocol. Control mice (n=7) received only LPS/GAL (280 μl) at 6.5 h. Deltorphin I SEQ ID NO:1 treated mice (n=15) received injections of 4 mg/kg deltorphin I SEQ ID NO:1 at 0 h, 2 h, 4 h, 6 h and 7.5 h and received an LPS/GAL injection at 6.5 h. DADLE treated mice (n 15) received 4 mg/kg DADLE at 0 h, 2 h, 4 h, 6 h and 7.5 h and received an LPS/GAL injection at 6.5 h.
Both control and treated mice were monitored at 15 h, 20 h, 40 h and 65 h after the last injection.

Compound | survival time compared to mice receiving LPS/GAL only | SURVIVAL 15 Hours (number of surviving mice) | SURVIVAL 15 Hours (percent of mice) | SURVIVAL 20 Hours (number of surviving mice) | SURVIVAL 20 Hours (percent of mice) | SURVIVAL 40 Hours (number of surviving mice) | SURVIVAL 40 Hours (percent of mice) | SURVIVAL 65 Hours (number of surviving mice) | SURVIVAL 65 Hours (percent of mice)
Tyr-D-Ala-Phe-Asp-Val-Val-Gly-NH2 [deltorphin I SEQ ID NO:1] | markedly increased survival time | 12 | 80% | 11 | 73% | 11 | 73% | 11 | 73%
CC(C)C[C@@H](NC(=O)[C@H](Cc1ccccc1)NC(=O)CNC(=O)[C@@H](C)NC(=O)[C@@H](N)Cc1ccc(O)cc1)C(=O)O [DADLE, Tyr-D-Ala-Gly-Phe-D-Leu-enkephalin] | not as striking at any time point | 3 | 20% | 3 | 20% | 3 | 20% | 3 | 20%

Source: US6380164B1, “Method for treating cytokine mediated hepatic injury” (University of Kentucky Research Foundation, priority 1999, dated 2002)
